Results: article PMC10892041, “Vanadium Complexes with Thioanilide Derivatives of Amino Acids: Inhibition of Human Phosphatases and Specificity in Various Cell Models of Metabolic Disturbances” (Pharmaceuticals, 2024)

Assays:
[1] = target: T1, PTP1B (Homo sapiens, UniProt P18031); assay: Inhibition of human recombinant tyrosine phosphatase PTP1B (DiFMUP fluorescence); format: biochemical; conditions: 1 µM; control solvent only; SD did not exceed 6%
T1 construct: purchased Sigma-Aldrich
T1 sequence (P18031 1-435): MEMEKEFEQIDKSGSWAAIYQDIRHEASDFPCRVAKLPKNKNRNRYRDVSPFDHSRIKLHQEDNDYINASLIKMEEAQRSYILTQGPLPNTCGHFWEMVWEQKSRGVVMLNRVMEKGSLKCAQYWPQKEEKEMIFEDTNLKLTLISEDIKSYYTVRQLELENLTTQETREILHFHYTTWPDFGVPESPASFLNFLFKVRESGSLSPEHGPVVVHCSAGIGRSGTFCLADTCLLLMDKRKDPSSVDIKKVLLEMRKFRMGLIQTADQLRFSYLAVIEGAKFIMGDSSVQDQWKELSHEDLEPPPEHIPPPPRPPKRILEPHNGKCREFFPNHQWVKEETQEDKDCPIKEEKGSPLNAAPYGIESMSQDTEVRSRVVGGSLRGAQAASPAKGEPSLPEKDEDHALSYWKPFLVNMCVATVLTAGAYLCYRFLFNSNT
Procedure, shortened: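 Human recombinant PTP1B (final 50 ng/mL) in buffer of 25 mM MOPS, 50 mM NaCl, 1 mM DTT and 0.05% Tween-20 (pH 7.0) was dispensed onto test compound in black 384-well plates. After 10 min, DiFMUP was added to 0.1 mM. Plates were incubated 20 min at 23 °C and fluorescence read (ex 355, em 560 nm). Assays were run in triplicate, with inhibition relative to enzyme-plus-vehicle control and IC50 fitted in GraphPad Prism.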

[2] = target: T2, LAR (Homo sapiens, UniProt P10586); assay: Inhibition of human recombinant tyrosine phosphatase LAR (DiFMUP fluorescence); format: biochemical; conditions: 1 µM; control solvent only; SD did not exceed 6%
T2 sequence (P10586 1352-1607 limits assumed): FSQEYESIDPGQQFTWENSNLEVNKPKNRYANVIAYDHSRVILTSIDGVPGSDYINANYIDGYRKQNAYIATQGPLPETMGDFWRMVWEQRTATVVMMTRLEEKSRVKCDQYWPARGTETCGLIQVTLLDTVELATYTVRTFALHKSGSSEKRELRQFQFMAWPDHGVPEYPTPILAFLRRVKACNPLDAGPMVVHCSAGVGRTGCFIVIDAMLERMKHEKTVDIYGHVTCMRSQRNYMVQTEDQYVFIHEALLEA
Procedure, shortened: (§1)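 Human recombinant phosphatases (SHP1 400 ng/mL, SHP2 50 ng/mL, LAR 5 ng/mL final) were pre-incubated 10 min with compound in 25 mM MOPS pH 7.0, 50 mM NaCl, 1 mM DTT, 0.05% Tween-20. DiFMUP (0.1 mM final) was added for 20 min at 23 °C and fluorescence read at 355/560 nm. Screening used 1 µM compound (% inhibition vs vehicle); IC50 also reported.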

[3] = target: T3, SHP1 (Homo sapiens, UniProt P29350); assay: Inhibition of human recombinant tyrosine phosphatase SHP1 (DiFMUP fluorescence); format: biochemical; conditions: 1 µM; control solvent only; SD did not exceed 6%
T3 construct: purchased Sigma-Aldrich
Procedure, shortened: as §1

[4] = target: T4, SHP2 (Homo sapiens, UniProt Q06124); assay: Inhibition of human recombinant tyrosine phosphatase SHP2 (DiFMUP fluorescence); format: biochemical; conditions: 1 µM; control solvent only; SD did not exceed 6%
T4 construct: purchased Sigma-Aldrich
T4 sequence (Q06124 1-593): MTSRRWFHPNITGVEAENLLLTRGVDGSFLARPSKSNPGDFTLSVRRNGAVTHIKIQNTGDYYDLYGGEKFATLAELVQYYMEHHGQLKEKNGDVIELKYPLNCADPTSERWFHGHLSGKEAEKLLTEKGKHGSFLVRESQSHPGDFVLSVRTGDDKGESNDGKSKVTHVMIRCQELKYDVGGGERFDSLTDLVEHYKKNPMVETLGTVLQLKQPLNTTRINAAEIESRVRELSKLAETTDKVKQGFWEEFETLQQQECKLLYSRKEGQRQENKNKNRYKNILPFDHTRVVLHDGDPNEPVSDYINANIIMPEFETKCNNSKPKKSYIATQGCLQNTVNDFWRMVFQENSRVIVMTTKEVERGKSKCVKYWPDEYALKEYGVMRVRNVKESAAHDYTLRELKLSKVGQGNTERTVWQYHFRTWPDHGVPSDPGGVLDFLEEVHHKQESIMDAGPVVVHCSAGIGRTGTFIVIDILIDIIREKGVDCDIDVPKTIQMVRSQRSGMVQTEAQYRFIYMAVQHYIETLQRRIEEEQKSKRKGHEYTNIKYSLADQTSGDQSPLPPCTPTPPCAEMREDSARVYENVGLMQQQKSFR
Procedure, shortened: as §1

[5] = test system: adipocytes 3T3-L1; set-up: method as in doi:10.1016/j.poly.2020.114589; conditions: 50 µM; previously published by the authors; cited from earlier work
[6] = test system: hepatocytes HepG2; conditions: 1 mM
Protocol: Hepatocytes HepG2, myocytes C2C12 (after 8 days differentiation), and adipocytes 3T3-L1 (after 11 days of differentiation) were cultured and maintained as described in the section above but pleated on a ScintiPlate TC 96-well microplate coated with a solid-phase scintillator (PerkinElmer). Hepatocytes and myocytes were washed, and culture medium was changed for medium with 0.5% BSA instead of serum. After 24 h incubation, the tested complexes were added. After 2 h incubation at 37 °C in 5% CO2, the medium was changed to low-glucose medium (1000 mg/L), and the tested complexes were added again, with further incubation for 4 h being conducted. […] Wortmannin at a final concentration of 200 nM (Sigma-Aldrich ) was used as a negative control. After that, cells were washed three times with cold KRB, and cytochalasin B (10 mM final) was added for several wells as a ‘‘no uptake” control, which proceeded as shown below.
For cells proceeded as above, 2-deoxy-D-[U-14C]-glucose (250–350 mCi/mmol, NEC720A, PerkinElmer) solution in KRB with a total activity of 0.03 mCi was added to each well. […] The radioactivity of samples was measured in a scintillation counter, MicroBeta Trilux 1450 (PerkinElmer). Non-specific radioactivity was subtracted from each result (cpm). […] The final results were expressed as percent of the control that contained solvent only instead of the tested compound.

[7] = test system: hepatocytes HepG2; assay: Inhibition of hepatic gluconeogenesis (glucose synthesis); conditions: known inhibitors of gluconeogenesis; concentration not given

T3 sequence (P29350 whole entry): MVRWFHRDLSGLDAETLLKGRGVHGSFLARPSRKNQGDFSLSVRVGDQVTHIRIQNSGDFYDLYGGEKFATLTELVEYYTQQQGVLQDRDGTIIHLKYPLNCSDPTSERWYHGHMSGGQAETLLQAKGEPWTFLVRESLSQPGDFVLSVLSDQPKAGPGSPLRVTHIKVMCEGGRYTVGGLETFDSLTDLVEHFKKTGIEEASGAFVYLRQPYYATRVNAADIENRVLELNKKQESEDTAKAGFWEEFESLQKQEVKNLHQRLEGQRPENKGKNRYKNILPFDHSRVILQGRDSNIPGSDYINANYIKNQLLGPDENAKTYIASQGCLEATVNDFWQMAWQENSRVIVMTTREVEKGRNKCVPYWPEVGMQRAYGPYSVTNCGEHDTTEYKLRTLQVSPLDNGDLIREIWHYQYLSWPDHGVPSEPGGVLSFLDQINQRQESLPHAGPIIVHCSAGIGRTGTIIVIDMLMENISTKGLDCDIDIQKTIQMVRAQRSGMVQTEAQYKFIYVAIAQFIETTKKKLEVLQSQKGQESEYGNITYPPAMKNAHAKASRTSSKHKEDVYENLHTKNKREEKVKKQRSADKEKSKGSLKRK

Inhibition of PTP1B, percentage of inhibition of the control [1] [%] | Inhibition of LAR, percentage of inhibition of the control [2] [%] | Inhibition of SHP1, percentage of inhibition of the control [3] [%] | Inhibition of SHP2, percentage of inhibition of the control [4] [%] | Potentiation of [14C]-deoxy-D-glucose transport to hyperinsulinemia-induced insulin-resistant hepatocytes [6] | Inhibition of glucose synthesis by hepatocytes, experimental control compounds [7] | Structure (SMILES) | Transport of [14C]-deoxy-D-glucose into 3T3-L1 adipocytes, % of control [5]
31 | 25 | 62 | 68 | – | – | O=C(NN=Cc1cc(Br)ccc1[O][V]1[O]C(c2ccccc2O)=NN=Cc2cc(Br)ccc2[O]1)c1ccccc1O [VC029, [V(L7)(HL7)]] | statistically significant activity
– | – | – | – | did not potentiate | showed inhibition of glucose synthesis | CN(C)C(=N)N=C(N)N [metformin] | –
